The values below come from US9492428B2, “Compounds, compositions, pharmaceutical compositions, and methods of use” (University of Louisville Research Foundation, Inc., priority 2011, dated 2016).

The subject of assay [1] is Prostate cancer cells (DU145 or PC3) or a non-malignant epithelial cells (RWPE-1). In words: MTT cell proliferation assay, 5 days, cancer versus non-malignant cells. The class given is cell-based, human. The conditions noted are these: after five days of treatment, FIG. 8C. The method, then:
FIG. 8. Cell proliferation assay. (A) DU145 or PC3 prostate cancer were plated at a density of 1,500 cells per well in 96-well plates and incubated 18 hours at 37° C. to allow adherence. They were untreated or treated by addition of different concentrations of compound I-1 (which were added directly to the medium) or vehicle (DMSO), and proliferation was measured using a 3-(4,5-dimethylthiazol-2-yl)-2,5-diphenyltetrazolium bromide MTT assay after 3 days of treatment. Points, mean of triplicate normalized samples to vehicle sample; bars, SE. (B) GI50 after 3 days of treatment. (C) Prostate cancer cells (DU145 or PC3) or a non-malignant epithelial cells (RWPE-1) were plated at a density of 1,000 cells per well in 96-well plates and incubated 18 hours at 37° C. to allow adherence. They were untreated or treated by addition of different concentrations of compound I-1 (added directly to the medium) or vehicle (DMSO), and proliferation was by MTT assay after 5 days of treatment. Points, mean of triplicate normalized samples to vehicle sample; bars, SE.
General Experimental Procedure. Compound I-1 was isolated as described in Example Set 1, above. For samples of compound I-1 used in Example Set 2, HPLC and NMR indicated a purity of at least 95%. All experiments described in Example Set 2 were repeated at least two or three times. […]
In general terms: Formazan colour is commonly taken as a measure of viable cells.

Assay [2] deals with PC3 cells. In words: Flow cytometric analysis of cell cycle (propidium iodide) in PC3. The class given is cell-based, human. To be noted: 10 μM. The method, then:
FIG. 11. Compound I-1 induces cell cycle arrest and apoptosis in PC3 cells. Prostate cancer cells were left untreated (−) or treated with compound I-1 (10 μM) or with vehicle (DMSO) for the time indicated in the figure. (A) For flow cytometric analysis of cell cycle parameters, cells were fixed, and stained with propidium iodide. Each histogram indicates the percent of cells in G1, S, and G2/M phases of the cell cycle. Data were gated to exclude apoptotic cells for these calculations. (B) After treatment, cells were lysed and total lysates were analyzed for cellular apoptotic markers by immunoblotting using anti-PARP-1 or anti-cleaved Caspase-3 antibodies. Anti-GAPDH-1 antibody was used as loading control. (C) Some 48 h-treated PC3 cells were harvest by trypsinization, washed with PBS, and total DNA was extracted then analyzed on a 1.8% agarose gel. M indicates DNA size marker (base pairs).
Flow cytometric assays of cell cycle and cell death. Cells in fresh complete medium were plated (2×10^5 per well) into six-well plates for 18 h. After complete adhesion, cells were treated as indicated in the figures and harvested by trypsinization. […] Cells were then analyzed by flow cytometry using a FACScalibur cytometer (BD Biosciences, Mountain View, Calif.) and FlowJo program (Tree Star, Inc., Ashland, Oreg.).

`C[C@@H]1CC[C@H]2C3C(O[C@]4([C@]5(O)CC6(C)C(=O)OC5C[C@@]6(C)O)CC[C@@]31O4)[C@H]1O[C@]13CC=CC(=O)[C@]23C` (some centres unmarked) [I-1]: in assay [1], the “inhibition of cancer cell growth as compared to non-malignant cell growth” value was “selectivity inhibit cancer cell growth”. Further, the G2/M arrest entry in assay [2] is “able to cause G2/M arrest”.
